Here are results for four molecules from patent US9504666B2, “Chloroprocaine-based pharmaceutical composition for repeated intrathecal administration” (SINTETICA S.A., priority 2012, dated 2016).

Read-outs that look alike come from different tables or passages of the source.

The test system of data set [1] is rats. The conditions noted are these: rat, in vivo.
Method: (§1) A pre-clinical trial was carried out to assess the neurotoxicity of 2-chloroprocaine by intrathecal administration in repeated doses using a saline solution as control.
(§2) A first group of six rats was repeatedly treated with 20 μl of an injectable saline solution by intrathecal administration once a day.
The conditions of data set [2]: in particular in form of hydrochloride; cited from earlier work.
The conditions of data set [3]: cited from earlier work.
For data set [4], the system named is rats. The data set is described as follows: Tail flick latency after repeated intrathecal doses. The conditions noted are these: for tail flick latency before injecting: before the daily 20 μl intrathecal injection. On the technique in general: Thermal pain tests record how soon the animal reacts.
Method: The data are presented as ±SEM average of 6 rats;
as §1, §2
For data set [5], the system named is rats. The data set is described as follows: Behaviour observation in the pre-clinical neurotoxicity trial with repeated intrathecal doses. As to conditions: for changes in behavior: 7 consecutive days.
Method: as §1, §2
Data set [6] deals with rats. As to conditions: rat, in vivo. This is another data set of the same source.
Method: as §1, §2
For the next data set, the system named is rat. The conditions noted are these: in vivo rat models, intrathecal, equipotent concentrations, versus lidocaine; cited from earlier work.
Data set [7] relates to rats. The data set is described as follows: Motor function score after repeated intrathecal doses. As to conditions: 20 μl of 0.5% solution intrathecally once a day, 7 consecutive days.
Method: as §1, §2
A short description of data set [8]: Body weight variation after repeated intrathecal doses. As to conditions: rats, 20 μl of 0.5% solution intrathecally once a day, 7 consecutive days.
Method: as §1, §2
Data set [9] relates to conus medullaris (cauda equina). The data set is described as follows: Histological nerve injury score of 10 mm caudal portion of conus medullaris (cauda equina). The conditions noted are these: 0.5% solution.
The conditions of data set [10]: cited from earlier work. The source holds these as a separate data set.
[11] abbreviates: 20 μl of 0.5% solution intrathecally, chloroprocaine not significant, bupivacaine P<0.001.
Setting [12] is: rats, 20 μl of 0.5% solution intrathecally once a day.

On to `CCN(CC)CCOC(=O)c1ccc(N)cc1Cl` [2-chloroprocaine, 2-(diethylaminoethyl) 4-amino-2-chlorobenzoate], for which, in the data set with rats [1], the “motor functions (score)” value is “remained unchanged”. The lasting of effect in data set [2] is 30 to 60 min. Moreover, the onset in data set [2] was 5 to 15 min. Moreover, the half-life result in data set [3] (offset by plasma pseudo cholinesterase) is listed as “lower than one”. The plasma half-life in data set [3] (plasma) was 45 to 60 s. Moreover, the “tail flick latency before injecting” value with rats [4] (0.5% solution), in the data set on rats [4] (1% solution) and with rats [4] (2% solution) was “comparable with the values of rats treated with vehicle” throughout. The “tail flick latency 20 minutes after injection” value in the data set on rats [4] (setting [11]) is “slight increase”; in the data set with rats [4] (20 μl of 1% solution intrathecally, P<0.05), “significant increase”; with rats [4] (20 μl of 2% solution intrathecally, P<0.001), “significant increase”. Besides, the changes in behavior result is given as “No appreciable changes in behavior” in the data set with rats [5] (setting [12]); “No appreciable changes in behavior” with rats [5] (rats, 20 μl of 1% solution intrathecally once a day); “No appreciable changes in behavior” in the data set on rats [5] (rats, 20 μl of 2% solution intrathecally once a day). The “tolerability compared with other administered concentrations” value with rats [5] (rats, repeated intrathecal, 2-chloroprocaine 2%, bupivacaine 0.5%) is on record as “less tolerated”. For the same molecule, in the data set with rats [5] (repeated intrathecal administration), the “neurotoxicity of repeated intrathecal administration” value was “does not determine detectable neurotoxicity”.
Consider `CCCCN1CCCCC1C(=O)Nc1c(C)cccc1C` (stereo not drawn) [bupivacaine], for which, in the data set on rats [6], the “tolerability compared with other administered concentrations” value is listed as “less tolerated”. The “morphological damage and functional worsening” value with rat is “less severe morphological damage and functional worsening than lidocaine”. For the same molecule, in the data set with rats [4] (0.5% solution), the “tail flick latency before injecting” value was “comparable with the values of rats treated with vehicle”. Besides, the “tail flick latency 20 minutes after injection” value with rats [4] (setting [11]) is “significant increase”. In addition, the “motor functions (score)” value in the data set with rats [7] was “two rats on the sixth day and three rats on the seventh day showed bilateral limbic weakness which influenced perambulation (score 2)”. In addition, the body weight result in data set [8] is listed as “decreased”. Moreover, the “moderately inflammatory infiltrate in some fibers, number of rats” value in data set [9] (group of 6 rats, 7 days repeated intrathecal) is listed as “one”. In addition, the “histological score (nerve injury score 0 to 3)” value in [9] (rats, 20 μl intrathecally once a day for 7 days, ±SEM of 6 rats, vehicle 0.809±0.067) is on record as 0.979±0.110. The changes in behavior entry in the data set on rats [5] (setting [12]) is “modest sleepiness in one rat on the fifth day and in two rats on the sixth and seventh days”.
As to `CCN(CC)CC(=O)Nc1c(C)cccc1C` [lidocaine], the “transient neurologic syndrome (TNS)” value in data set [10] (use in spinal anesthesiological practice, Pollock 2002) is listed as “associated to the onset of transient neurologic syndrome (TNS)”.
`CCN(CC)CCOC(=O)c1ccc(N)cc1` [procaine]: in [10] (spinal anesthesia, Hodgson et al. 2000), the “percentage of cases refractory to local anesthesia” value is 17%.
